The assay relates to Lactate Dehydrogenase (LDH). Kind of assay: Western blot, Lactate Dehydrogenase levels. In kind it is cell-based, human. On the procedure:
The samples were processed and run on a 4-12% Bis-Tris Novex NuPAGE gel as described above. The gels were run, transferred and stained essentially as described above.
After transfer each blot was dried for 15-20 minutes, activated with methanol for 5 seconds, washed with water for 5 minutes, and TBST for 15 minutes. The blots were blocked for 1 hour with 5% blocking reagent in TBS-T at room temperature and then washed 3 times with TBS-T (1X−15′; 2X5′ each) and probed with the primary antibody for Lactate Dehydrogenase (abcam ab2101; polyclonal) in 5% BSA (at 1:1000 dilutions) by incubation overnight at 4 deg C. with shaking. After the overnight incubation with primary antibody for Lactate Dehydrogenase, the blots were washed 3 times with TBS-T (1X−15′; 2X5′ each) and probed with the secondary antibody (rabbit antigoat; 1:10,000 dilution) for 1 h at room temperature. After 1 h of incubation with secondary antibodies, the blots were washed 3 times with TBS-T (1X−15′; 2X5′ each) and then incubated with ECF reagent for 5 mins and then each blot scanned with 5100 Fuji Laser scanner at 25 uM resolution, 16 bit, green laser, at 400V and at 500 V. […]
The levels of LDH and PDH were determined by probing the blots successively with primary antibodies for LDH and PDH, essentially as described above. […]
(In western blotting, separated proteins are transferred to a membrane and probed.)

In the case of `COC1=C(OC)C(=O)C(C/C=C(\C)CC/C=C(\C)CC/C=C(\C)CC/C=C(\C)CC/C=C(\C)CC/C=C(\C)CC/C=C(\C)CC/C=C(\C)CC/C=C(\C)CCC=C(C)C)=C(C)C1=O` [Q10, Coenzyme Q10], the LDH expression result is, setting by setting: (cancer) “reduced Lactate Dehydrogenase (LDH) expression in cancer”; (normal cells) “minimal effect on normal cells”.
